Counter-ions that a name gives are not always drawn.
These compounds were tested against T1, HCV polymerase (Hepatitis C virus genotype 1b, UniProt P26663) (assay: biochemical).
T1 construct: a region encoding NS5B (J Virol 1991 March, 65(3), 1105-13, 544 amino acids after deletion of 47 amino acids on the C-terminal); 6xHis (C); made in house; host or cells: Escherichia coli
Set-up: species or system HCV BK strain
Summary of the method: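 Recombinant HCV BK-strain NS5B (C-terminal 47 aa deleted, His6-tagged, E. coli), 0.5 μg/ml, run with 5 μg/ml in vitro-transcribed RNA template (polyU/3′X), ATP/GTP/CTP 50 μM, UTP 2 μM plus [3H]UTP, pH 7.5, 25° C, 90 min. TCA-precipitated RNA counted by scintillation; IC50 from activity with vs without compound.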

T1 sequence (P26663 2420-2963): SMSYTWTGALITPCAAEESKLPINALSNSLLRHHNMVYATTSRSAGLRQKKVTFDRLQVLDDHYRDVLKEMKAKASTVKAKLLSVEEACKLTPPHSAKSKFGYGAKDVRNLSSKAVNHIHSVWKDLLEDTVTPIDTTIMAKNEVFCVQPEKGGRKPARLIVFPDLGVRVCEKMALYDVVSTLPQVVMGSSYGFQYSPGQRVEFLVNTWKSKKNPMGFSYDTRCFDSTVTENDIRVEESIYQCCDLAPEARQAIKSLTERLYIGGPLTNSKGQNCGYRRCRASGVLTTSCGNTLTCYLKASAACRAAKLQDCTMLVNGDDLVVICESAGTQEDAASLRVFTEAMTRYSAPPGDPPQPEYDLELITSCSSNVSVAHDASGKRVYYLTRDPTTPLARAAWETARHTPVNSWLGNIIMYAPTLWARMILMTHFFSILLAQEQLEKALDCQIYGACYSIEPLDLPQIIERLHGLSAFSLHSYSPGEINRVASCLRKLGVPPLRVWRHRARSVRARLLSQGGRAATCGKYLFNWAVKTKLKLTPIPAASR

Row | SMILES | IC50
1 | O=C(O)c1ccc2c(C3CCCCC3)c3n(c2c1)CCOc1cc(Oc2ccc(Cl)cc2)ccc1-3 [Example 2-31, 3-(4-chlorophenoxy)-12-cyclohexyl-6,7-dihydro-5-oxa-7a-azadibenzo[a,e]azulene-9-carboxylic acid] | < 100 nM
2 | Cc1cc(COc2ccc3c(c2)OCCn2c-3c(C3CCCCC3)c3ccc(C(=O)O)cc32)no1 [Example 2-32, 12-cyclohexyl-3-(5-methylisoxazol-3-ylmethoxy)-6,7-dihydro-5-oxa-7a-azadibenzo[a,e]azulene-9-carboxylic acid] | < 100 nM
3 | CC(C)(C)OC(=O)NCCOc1ccc2c(c1)OCCn1c-2c(C2CCCCC2)c2ccc(C(=O)O)cc21 [Example 2-33, 3-[2-(tert-butoxycarbonylamino)ethoxy]-12-cyclohexyl-6,7-dihydro-5-oxa-7a-azadibenzo[a,e]azulene-9-carboxylic acid] | < 100 nM
4 | Cc1nc(COc2ccc3c(c2)OCCn2c-3c(C3CCCCC3)c3ccc(C(=O)O)cc32)cs1 [Example 2-34, 12-cyclohexyl-3-(2-methylthiazol-4-ylmethoxy)-6,7-dihydro-5-oxa-7a-azadibenzo[a,e]azulene-9-carboxylic acid] | < 100 nM
5 | CC(C)(C)OC(=O)N1CCC[C@H]1COc1ccc2c(c1)OCCn1c-2c(C2CCCCC2)c2ccc(C(=O)O)cc21 [Example 2-35, 3-[(S)-1-(tert-butoxycarbonyl)pyrrolidin-2-ylmethoxy]-12-cyclohexyl-6,7-dihydro-5-oxa-7a-azadibenzo[a,e]azulene-9-carboxylic acid] | < 100 nM
6 | COC(=O)NCCOc1ccc2c(c1)OCCn1c-2c(C2CCCCC2)c2ccc(C(=O)O)cc21 [Example 2-36, 12-cyclohexyl-3-[2-(methoxycarbonylamino)ethoxy]-6,7-dihydro-5-oxa-7a-azadibenzo[a,e]azulene-9-carboxylic acid] | < 100 nM
7 | COC(=O)N1CCC[C@H]1COc1ccc2c(c1)OCCn1c-2c(C2CCCCC2)c2ccc(C(=O)O)cc21 [Example 2-37, 12-cyclohexyl-3-((S)-1-methoxycarbonylpyrrolidin-2-ylmethoxy)-6,7-dihydro-5-oxa-7a-azadibenzo[a,e]azulene-9-carboxylic acid] | < 100 nM
8 | O=C(O)c1ccc2c(C3CCCCC3)c3n(c2c1)CCOc1cc(OCCN2CCOC2=O)ccc1-3 [Example 2-38, 12-cyclohexyl-3-[2-(2-oxooxazolidin-3-yl)ethoxy]-6,7-dihydro-5-oxa-7a-azadibenzo[a,e]azulene-9-carboxylic acid] | < 100 nM
9 | O=C(O)c1ccc2c(C3CCCCC3)c3n(c2c1)CCOc1c(OCc2ccccc2)cccc1-3 [Example 2-39, 4-benzyloxy-12-cyclohexyl-6,7-dihydro-5-oxa-7a-azadibenzo[a,e]azulene-9-carboxylic acid] | < 100 nM
10 | CC(C)(C)OC(=O)N1CC[C@H](Oc2ccc3c(c2)OCCn2c-3c(C3CCCCC3)c3ccc(C(=O)O)cc32)C1 [Example 2-40, 3-[(S)-1-(tert-butoxycarbonyl)pyrrolidin-3-yloxy]-12-cyclohexyl-6,7-dihydro-5-oxa-7a-azadibenzo[a,e]azulene-9-carboxylic acid] | < 100 nM
11 | CC(C)(C)OC(=O)N[C@H](COc1ccc2c(c1)OCCn1c-2c(C2CCCCC2)c2ccc(C(=O)O)cc21)Cc1ccccc1 [Example 2-41, 3-((S)-2-tert-butoxycarbonylamino-3-phenylpropoxy)-12-cyclohexyl-6,7-dihydro-5-oxa-7a-azadibenzo[a,e]azulene-9-carboxylic acid] | < 100 nM
12 | O=C(O)c1ccc2c(C3CCCCC3)c3n(c2c1)CCOc1cc(O[C@H]2CCNC2)ccc1-3 [Example 2-42, 12-cyclohexyl-3-((S)-pyrrolidin-3-yloxy)-6,7-dihydro-5-oxa-7a-azadibenzo[a,e]azulene-9-carboxylic acid monohydrochloride] | < 100 nM
13 | CC(C)[C@@H](COc1ccc2c(c1)OCCn1c-2c(C2CCCCC2)c2ccc(C(=O)O)cc21)NC(=O)OC(C)(C)C [Example 2-43, 3-((S)-2-tert-butoxycarbonylamino-3-methylbutoxy)-12-cyclohexyl-6,7-dihydro-5-oxa-7a-azadibenzo[a,e]azulene-9-carboxylic acid] | < 100 nM
14 | CS(=O)(=O)N1CCCC(Oc2ccc3c(c2)OCCn2c-3c(C3CCCCC3)c3ccc(C(=O)O)cc32)C1 (centres unmarked) [Example 2-44, 12-cyclohexyl-3-(1-methanesulfonylpiperidin-3-yloxy)-6,7-dihydro-5-oxa-7a-azadibenzo[a,e]azulene-9-carboxylic acid] | < 100 nM
15 | CN1CCCCC1COc1ccc2c(c1)OCCn1c-2c(C2CCCCC2)c2ccc(C(=O)O)cc21 (centres unmarked) [Example 2-45, 12-cyclohexyl-3-(1-methylpiperidin-2-ylmethoxy)-6,7-dihydro-5-oxa-7a-azadibenzo[a,e]azulene-9-carboxylic acid] | < 100 nM
16 | O=C(O)c1ccc2c(C3CCCCC3)c3n(c2c1)CCOc1cc(OC2CCCNC2)ccc1-3 (centres unmarked) [Example 2-46, 12-cyclohexyl-3-(piperidin-3-yloxy)-6,7-dihydro-5-oxa-7a-azadibenzo[a,e]azulene-9-carboxylic acid monohydrochloride] | < 100 nM
17 | NC(=O)c1ccc2c(C3CCCCC3)c3n(c2c1)CCOc1cc(OCc2cc(N4CCCC4=O)ccc2N2CCOCC2)ccc1-3 [Example 2-47, 12-cyclohexyl-3-[2-(morpholin-4-yl)-5-(2-oxopyrrolidin-1-yl)benzyloxy]-6,7-dihydro-5-oxa-7a-azadibenzo[a,e]azulene-9-carboxamide monohydrochloride] | < 100 nM
18 | CS(=O)(=O)c1ccc(N2CCOCC2)c(COc2ccc3c(c2)OCCn2c-3c(C3CCCCC3)c3ccc(C(N)=O)cc32)c1 [Example 2-48, 12-cyclohexyl-3-[5-methanesulfonyl-2-(morpholin-4-yl)benzyloxy]-6,7-dihydro-5-oxa-7a-azadibenzo[a,e]azulene-9-carboxamide monohydrochloride] | < 100 nM
19 | COC(=O)N[C@H](COc1ccc2c(c1)OCCn1c-2c(C2CCCCC2)c2ccc(C(=O)O)cc21)Cc1ccccc1 [Example 2-49, 12-cyclohexyl-3-((S)-2-methoxycarbonylamino-3-phenylpropoxy)-6,7-dihydro-5-oxa-7a-azadibenzo[a,e]azulene-9-carboxylic acid] | < 100 nM
20 | COC(=O)N1CC[C@H](Oc2ccc3c(c2)OCCn2c-3c(C3CCCCC3)c3ccc(C(=O)O)cc32)C1 [Example 2-50, 12-cyclohexyl-3-((S)-1-methoxycarbonylpyrrolidin-3-yloxy)-6,7-dihydro-5-oxa-7a-azadibenzo[a,e]azulene-9-carboxylic acid] | < 100 nM
21 | CC(C)[C@@H](COc1ccc2c(c1)OCCn1c-2c(C2CCCCC2)c2ccc(C(=O)O)cc21)NS(C)(=O)=O [Example 2-51, 12-cyclohexyl-3-((S)-2-methanesulfonylamino-3-methylbutoxy)-6,7-dihydro-5-oxa-7a-azadibenzo[a,e]azulene-9-carboxylic acid] | < 100 nM
22 | COC(=O)Nc1ccccc1Oc1ccc2c(c1)OCCn1c-2c(C2CCCCC2)c2ccc(C(=O)O)cc21 [Example 2-52, 12-cyclohexyl-3-[2-(methoxycarbonylamino)phenoxy]-6,7-dihydro-5-oxa-7a-azadibenzo[a,e]azulene-9-carboxylic acid] | < 100 nM
23 | O=C(O)c1ccc2c(C3CCCCC3)c3n(c2c1)CCOc1c(OCCN2CCCCC2)cccc1-3 [Example 2-53, 12-cyclohexyl-4-[2-(piperidin-1-yl)ethoxy]-6,7-dihydro-5-oxa-7a-azadibenzo[a,e]azulene-9-carboxylic acid hydrochloride] | < 100 nM
24 | O=C(O)c1ccc(NC(=O)C2(NC(=O)c3ccc4c(C5CCCCC5)c5n(c4c3)CCOc3ccccc3-5)CCC2)nc1 [Example 2-54, 6-({1-[(12-cyclohexyl-6,7-dihydro-5-oxa-7a-azadibenzo[a,e]azulene-9-carbonyl)amino]cyclobutanecarbonyl}amino)nicotinic acid] | < 100 nM
25 | O=C(O)CNC(=O)C1(NC(=O)c2ccc3c(C4CCCCC4)c4n(c3c2)CCOc2ccccc2-4)CCC1 [Example 2-55, ({1-[(12-cyclohexyl-6,7-dihydro-5-oxa-7a-azadibenzo[a,e]azulene-9-carbonyl)amino]cyclobutanecarbonyl}amino)acetic acid] | < 100 nM
26 | O=C(NC1(C(=O)NC2(C(=O)O)CCC2)CCC1)c1ccc2c(C3CCCCC3)c3n(c2c1)CCOc1ccccc1-3 [Example 2-151, 1-({1-[(12-cyclohexyl-6,7-dihydro-5-oxa-7a-azadibenzo[a,e]azulene-9-carbonyl)amino]cyclobutanecarbonyl}amino)cyclobutanecarboxylic acid] | < 100 nM
27 | COC(=O)c1ccc2nc(C3(NC(=O)c4ccc5c(C6CCCCC6)c6n(c5c4)CCOc4ccccc4-6)CCC3)[nH]c2c1 [Example 2-152, methyl 2-{1-[(12-cyclohexyl-6,7-dihydro-5-oxa-7a-azadibenzo[a,e]azulene-9-carbonyl)amino]cyclobutyl}-3H-benzimidazole-5-carboxylate] | < 100 nM
28 | O=C(O)c1ccc(N[C@@H]2CCCC[C@H]2NC(=O)c2ccc3c(C4CCCCC4)c4n(c3c2)CCOc2ccccc2-4)cc1 [Example 2-153, 4-{(1R,2R)-2-[(12-cyclohexyl-6,7-dihydro-5-oxa-7a-azadibenzo[a,e]azulene-9-carbonyl)amino]cyclohexylamino}benzoic acid] | < 100 nM
29 | COCC(C)(NC(=O)c1ccc2c(C3CCCCC3)c3n(c2c1)CCOc1ccccc1-3)C(=O)O (centres unmarked) [Example 2-154, 2-[(12-cyclohexyl-6,7-dihydro-5-oxa-7a-azadibenzo[a,e]azulene-9-carbonyl)amino]-3-methoxy-2-methylpropionic acid] | 100 to 1000 nM

Reference: patent publication US20070049593A1 (priority 2004, published 2007)
